{
  "source": "patent US10378041B2",
  "about": "“Effervescent compositions and uses thereof” (3M INNOVATIVE PROPERTIES COMPANY, priority 2010, dated 2019)",
  "tested_on": "Pseudomonas putida (ATCC 31483)",
  "experiment": "Bacterial growth in growth medium containing ceftazidime hydrate (96-well plate, turbidity)",
  "assay_type": "cell-based",
  "set-up": "key to bacterial growth (turbidity): “+” indicates growth; “−” indicates no growth",
  "conditions": "overnight at 37° C.",
  "method": "Samples of growth media were prepared by dissolving a tablet of each composition in 1 liter of recovery media (modified Listeria Recovery Broth (MLRB), available from 3M Company; St. Paul, Minn.). The tablets dissolved within 4.5 minutes. A sample of growth media was prepared as a control by dissolving 10 mg of Ceftazidime hydrate powder (product number C3809-5G available from Sigma Aldrich; St. Louis, Mo.) in 1 liter of MLRB.\nA bacterial suspension was prepared by inoculating a pure culture of Pseudomonas putida (ATCC 31483 obtained from ATCC, Manassas, Va.) into tryptic soy broth (BD™ Tryptic Soy Broth; Becton Dickinson; Sparks, Md.) and incubating at 37° C. The suspension was diluted 1:1,000 in SMB (Standard Methods Buffer; 3M Company; St. Paul, Minn.). The diluted suspension was further diluted 1:10,000-diluted in SMB growth medium containing ceftazidime concentrations shown in Table 10. Four duplicates of each sample were pipetted into a 96-well plate as follows: Growth Control with no Ceftazidime hydrate; an Undiluted Control with 10 micrograms Ceftazidime hydrate/microliter of the bacterial suspension; and each dilution of inoculated medium containing the concentration of ceftazidime hydrate shown in the Table 10. The 96-well plate was incubated overnight at 37° C. and examined visually for bacterial growth. Turbidity in the well indicated growth.",
  "data": [
    {"smiles": "CC(C)(O/N=C(\\C(=O)N[C@@H]1C(=O)N2C(C(=O)[O-])=C(C[n+]3ccccc3)CS[C@H]12)c1csc(N)n1)C(=O)O", "note": "[Powder Control, Ceftazidime hydrate]", "values": [
      {"measurement": "bacterial growth (turbidity)", "setting": "2.5 mcg CDH/microliter", "value": "+"},
      {"measurement": "bacterial growth (turbidity)", "setting": "3.75 mcg CDH/microliter", "value": "+"},
      {"measurement": "bacterial growth (turbidity)", "setting": "5.0 mcg CDH/microliter", "value": "−"},
      {"measurement": "bacterial growth (turbidity)", "setting": "6.25 mcg CDH/microliter", "value": "−"},
      {"measurement": "bacterial growth (turbidity)", "setting": "7.5 mcg CDH/microliter", "value": "−"},
      {"measurement": "bacterial growth (turbidity)", "setting": "8.75 mcg CDH/microliter", "value": "−"},
      {"measurement": "bacterial growth (turbidity)", "setting": "Undiluted Control - 10 mcg CDH/microliter", "value": "−"},
      {"measurement": "lowest concentration of ceftazidime hydrate showing no growth", "setting": "delivered in tablet or powder", "value": "5 mcg/microliter of sample"}
    ]}
  ]
}
